The values below come from article PMC12864978, “Covalent modification of a glutamic acid inspired by HaloTag technology” (Nature Communications, 2026).

A word on the IC50: it is the concentration that inhibits the measured activity by half. As usually defined, the Kd is the equilibrium constant for the complex coming apart.

The target of data set [1] is T1, PDEδ (Homo sapiens, UniProt O43924). The experiment in a line: Covalent modification of PDEδ by MALDI mass spectrometry. It is filed as binding. Details: His tag; made in house; host or cells: Escherichia coli Rosetta (BL21DE3), pET plasmids. The settings on record: PDEδ 20 µM, compound 60 µM, HEPES pH 7.5, 37 °C; mean ± s.e.m. On the procedure:
The solution was briefly centrifuged before a sample was taken at the designated time for analysis by MALDI. […] Mass spectra were obtained over the m/z range 15,000–25,000 using a Bruker UltrafleXtreme XIAL DI-TOF/TOF mass spectrometer. Percentages of covalent adduct formation were estimated by the relative intensity of the respective peaks in MALDI spectra.
1. Supplementary Figures and Tables
PDEδ (20 µM) was incubated with compounds (60 µM) in HEPES
Percentages of covalent adduct formation were estimated by the relative intensity of the respective peaks in MALDI spectra. Data are presented as mean ± s.e.m.
Apparent pseudo -first order kobs was estimated by percentages of covalent adduct formation at 2 hours by MALDI. Plot of kobs (h-1) against concentration (µM) was fitted by GraphPad […]
Prism Michaelis-Menten model and separate values for kinact and KI were obtained to calculate apparent […]
PDEδ (20 µM) was incubated with
Data are presented as mean ± s.e.m.
HEPES buffer, n = 3 for the rest). One-way ANOVA with matched time-points, with Geisser-

Data set [2] in a line: Compound stability in aqueous buffers. It is filed as physicochemical. On the procedure: (§1) Compound (1 mM) was incubated with the respective buffers (HEPES 20 mM, 150 mM NaCl, pH = 7.5; 0.2 M sodium acetate buffer, pH = 5.6; 0.2 M sodium citrate buffer, pH = 6.2; 0.2 M potassium phosphate buffer, pH = 7.4, 1 mM EDTA, with or without 10 mM GSH), with 1% DMSO adjusted for all conditions. […] Per cent (%) compound remaining in the solution was estimated by the ratio of areas under the curve, and data plotted were fitted to pseudo-1st kinetics in the calculation of rate constants (k) and half-lives (t1/2), where k is the negative slope of a linear regression of In (% compound remaining) over time. Half-lives (t1/2) in respective buffers and half-lives for GSH adduct formation (t1/2 GSH) were calculated with the following equations:1 t1/2=In2/k 2 kGSH=ktotalconsumptioninphosphatebufferinpresenceofGSH−k(phosphatebufferinabsenceofGSH) 3 t1/2GSH=In2/k(GSH) […]
(§2) a, Percentage (%) of compound remaining was monitored by HPLC-MS and data was fitted to pseudo-first kinetics in calculation of rate constants (k) and half-lives (t1/2) in respective buffers, where k is the negative slope of a linear regression of In (% compound remaining) over time and t 1/2 = In2/k. Initial […]
(§3) Initial GSH concentration =

Data set [3] in a line: GSH adduct formation (stability in the presence of GSH). The note with it: phosphate buffer with 10 mM GSH; 10-fold excess of GSH at 10 mM, phosphate buffer pH 7.4, 37 °C; read-out: half-life for GSH adduct formation t1/2 GSH (converted). It is filed as physicochemical. On the procedure: as §1, §2, §3
The target in data set [4] is T1, PDEδ. Nature of the data set: Competitive fluorescence polarisation assay (FA probe displacement). It is filed as binding. Details: His tag; made in house; host or cells: Escherichia coli Rosetta (BL21DE3), pET plasmids. The settings on record: PDEδ 40 nM, FA probe 24 nM, room temperature overnight.
Data set [5] has as its target T1, PDEδ. Nature of the data set: Differential scanning fluorimetry (NanoDSF). It is filed as binding. Set-up: His tag; made in house; host or cells: Escherichia coli Rosetta (BL21DE3), pET plasmids. The note with it: PDEδ 20 µM, compound 60 µM; mean ± s.d., Fig. 2e; read-out: melting temperature shift ΔTm (NanoDSF). The procedure:
Afterwards, a sample of the solution was cooled down to room temperature and was loaded onto a capillary, followed by the measurement of fluorescence intensities at 350 nm and 330 nm from 20 °C up to 90 °C (with a rate of increment of 1 °C/min) using the Prometheus Panta device (NanoTemper® Technologies, DE).
A general note: Differential scanning fluorimetry follows unfolding on heating by fluorescence.

The target in data set [6] is T1, PDEδ. Nature of the data set: Mass spectrometry analysis of PDEδ adducts after Glu-C digestion. The note with it: LC-MS/MS, 10:1 compound to protein. It is filed as binding. Set-up: His tag; made in house; host or cells: Escherichia coli Rosetta (BL21DE3), pET plasmids. The procedure:
For each replicate, 1.5 µg covalent adduct of PDEδ sample in PBS buffer was denatured, reduced, alkylated and digested by Glu-C and desalted, together with a negative control of unbound vehicle-treated PDEδ sample prior to mass spectrometry analysis. […] The final mixture containing 6.5 M guanidine hydrochloride was heated at 95 °C for 15 min. Subsequently, after cooling, 0.5 µl of a 50 mM dithiothreitol (DTT, cas 3483-12-3, Gerbu Biotechnik, #1008-100 g) solution was added. […] . Samples were incubated at 37 °C overnight with shaking at 400 rpm, protected from light. […] Desalting was carried out with stage tips with C18 extraction discs (Empore^TM high performance extraction discs, 47 mm, 3 M Bioanalytical Technologies #2215). Each stage tip, which consists of two stacked layers of C18 discs, was activated with methanol (100 µl), washed once with buffer B (100 µl, 0.1% formic acid, 80% acetonitrile), and twice with buffer A (100 µl/time, 0.1% formic acid). After sample loading and washing with buffer A once, the desalted sample was eluted with buffer B (20 µl/sample) and centrifuged at 500×g at room temperature for 5 min. Eluted samples were then dried in a SpeedVac at 30 °C.
Data evaluation was performed using MaxQuant software (v.2.2.0.0)[52]. […] Cleavages by Glu-C were analysed based on the enzyme that was used for digestion. […]

In data set [7] the test system is BxPC-3 cells. Nature of the data set: Real-time cell analysis (Incucyte) of proliferation. It is filed as cell-based, human. The procedure:
(§4) Real-time cell analysis (RTCA) was conducted using an Incucyte S3 live-cell analysis system (Sartorius AG, Germany). […] Following attachment overnight, the medium was replaced with fresh medium containing test compounds, with all conditions adjusted to contain 0.5% DMSO. […] Phase-contrast images (2 images per well) were automatically captured at 2-h intervals until control wells (DMSO-treated) reached full confluency. Cell growth was quantified using the instrument’s integrated Basic Analyser module by applying a confluence mask to calculate the percentage of phase area confluence. […] Dose-response curves were generated and fitted via four-parameter variable slope nonlinear regression to determine cellular IC₅₀ values.

Data set [8] deals with MIA PaCa-2 cells. Described as above. It is filed as cell-based, human. The procedure: as §4
Data set [9] concerns NCI-H358 cells. The description is as above. It counts as cell-based, human. The note with it: read-out: cellular IC50. On the procedure:
as §4

Data set [10] has as its system PA-TU-8902 cells. The description is as above. It counts as cell-based, human. On the procedure: as §4
The test system of data set [11] is SW480 cells. The data set is described as above. It counts as cell-based, human. The procedure: as §4
Data set [12] deals with panel of human cell lines. Nature of the data set: Cytotoxicity screening in a panel of human cell lines. It counts as cell-based. The note with it: concentrations up to 25 µM. The procedure: Real-time cell analysis (RTCA) was conducted using an Incucyte S3 live-cell analysis system (Sartorius AG, Germany). Adherent cell lines were seeded at 5 × 10³ cells per well in 96-well plates containing 100 µl of culture medium and incubated overnight at 37 °C with 5% CO₂. Following attachment overnight, the medium was replaced with fresh medium containing test compounds, with all conditions adjusted to contain 0.5% DMSO. […] Phase-contrast images (2 images per well) were automatically captured at 2-h intervals until control wells (DMSO-treated) reached full confluency. Cell growth was quantified using the instrument’s integrated Basic Analyser module by applying a confluence mask to calculate the percentage of phase area confluence. For dose-response assessment, confluence values at 72 h post-treatment were normalised to the DMSO control and analysed using GraphPad Prism 9.5.1 (GraphPad Software, USA). Dose-response curves were generated and fitted via four-parameter variable slope nonlinear regression to determine cellular IC₅₀ values.
representative of biological replicates n = 3.
comet images for each condition were shown.
time live-cell imaging by Incucyte.
Source data are provided as […]

The subject of data set [13] is Rheb localisation in PA-TU-8902 cells. Nature of the data set: Immunofluorescence staining of Rheb. It counts as cell-based, human. The note with it: 5 µM, overnight. On the procedure:
Immunostaining: compound-treated PA-TU-8902 cells were washed once with cold PBS, fixed with 3.7% paraformaldehyde in PBS by incubation at room temperature for 10 min and permeabilised with 0.3% Triton X-100 in PBS by incubation at room temperature for 15 min. […] After washing with PBS-T three times, PBS-incubated cells were imaged with Observer Z1 (Carl Zeiss, Germany) with a 63× oil objective.

In data set [14] the target is PDEδ. The note with it: previously developed PDEδ inhibitor chemotypes, Fig. 1b; read-out: KD (reported binding affinity); cited from earlier work.
The target in data set [15] is UNC119B (Homo sapiens, UniProt A6NIH7). The experiment in a line: Mass spectrometry analysis of UNC119B adducts after Lys-C digestion. The note with it: 10 eq., overnight at 37 °C; including binding pocket p.E174.
Where [16] appears, read: Homo sapiens, 72 h, read-out: cellular IC50.

“Also recorded” adds a separate entry of the source. Like-named read-outs stand apart in the source and are kept apart here. Some results are limits rather than exact numbers.

As for `Cc1ccc(-n2nc3c(=O)n(CCCC(=O)NCCCCCBr)nc(C)c3c2C)cc1` [2d], in [1], the “% covalent modification at 24 h” value amounted to 8 ± 5%.
With `Cc1ccc(-n2nc3c(=O)n(CCCC(=O)N(CCCCl)CC4CCNCC4)nc(C)c3c2C)cc1` [3a], in data set [1], the “% covalent modification at 24 h” value is reported as “not reactive enough to yield any detectable covalent adduct”.
On the same count and under the same terms, the value for `Cc1ccc(-n2nc3c(=O)n(CCCC(=O)N(CCCCCCl)CC4CCNCC4)nc(C)c3c2C)cc1` [3b] was “not reactive enough to yield any detectable covalent adduct”; that for `Cc1ccc(-n2nc3c(=O)n(CCCC(=O)N(CCCBr)CC4CCNCC4)nc(C)c3c2C)cc1` [3c] was “not reactive enough to yield any detectable covalent adduct”; that for `Cc1ccc(-n2nc3c(=O)n(CCCC(=O)N(CCCCCBr)CC4CCNCC4)nc(C)c3c2C)cc1` [3d] was 11 ± 4%.
As for `Cc1ccc(-n2nc3c(=O)n(CCCCS(=O)(=O)N(CCCCCBr)CC4CCNCC4)nc(C)c3c2C)cc1` [4b], in data set [1], the “% covalent modification at 24 h” value stood at 23 ± 3%.
Consider `Cc1ccc(-n2nc3c(=O)n(CCCCS(=O)(=O)N(CCCCCCCBr)CC4CCNCC4)nc(C)c3c2C)cc1` [5e], for which the half-life at 1 mM in [2] (HEPES buffer, pH 7.5, 37 °C, compound 1 mM, read-out: half-life t1/2 in HEPES buffer (converted)) is 85 h; in data set [2] (acetate buffer, pH 5.6, 37 °C, read-out: half-life t1/2 in acetate buffer (converted)) it was 43 h; in [3], 180 days. In addition, the “% covalent modification at 24 h” value in [1] is listed as 62 ± 10%. Besides, the IC50 in [4] was 0.017 ± 0.0061 µM. Further, the ΔTm at 60 µM in data set [5] came to 14.7 ± 1.2 °C. The “site of covalent modification in PDEδ” value in [6] was “either at p.E88 or p.E89”.
For `Cc1ccc(-n2nc3c(=O)n(CCCCS(=O)(=O)N(CCCCCCCCl)CC4CCNCC4)nc(C)c3c2C)cc1` [5h], the IC50 in data set [4] came out at 0.0137 ± 0.0034 µM. For the same compound, the ΔTm at 60 µM in [5] was determined as 11.3 ± 0.6 °C.
In the case of `Cc1ccc(-n2nc3c(=O)n(CCCCS(=O)(=O)N(CCc4cccc(CCCl)c4)CC4CCNCC4)nc(C)c3c2C)cc1` [6b], the half-inhibitory concentration (IC50) in [7] (setting [16]) was greater than 26 µM; in data set [8] (Homo sapiens, MIA PaCa-2, 72 h, read-out: cellular IC50), 10.9 ± 1.9 µM; in data set [9] (Homo sapiens, NCI-H358, 72 h, NCI-H358, 72 h) it was 6.8 ± 1.9 µM; in data set [9] (NCI-H358, 72 h), 6.3 ± 1.9 µM; in data set [10] (Homo sapiens, PaTu 8902, PA-TU-8902, 72 h, read-out: cellular IC50), 12 ± 1 µM; in data set [11] (setting [16]), greater than 50 µM. The same compound had an IC50 in [4] of 0.0082 ± 0.004 µM. Further, the general cytotoxicity result in data set [12] is “not observed”. The ΔTm at 60 µM in data set [5] came out at 11.1 ± 0.6 °C.
Take `Cc1ccc(-n2nc3c(=O)n(CCCC(=O)NCC(C)c4ccccc4)nc(C)c3c2C)cc1` (centres unmarked) [Deltazinone 1, reference compound]: the “cellular Rheb distribution” value in data set [13] is “loss of inhibition for PDEδ-Rheb interaction”. Besides, the growth inhibition entry in data set [7] (doses up to 50 µM) is listed as “little or no growth inhibition”; in data set [8] (MIA PaCa-2, doses up to 50 µM) it was “little or no growth inhibition; also recorded: no anti-proliferative activity”; in [11] (doses up to 50 µM) it was “little or no growth inhibition”. In addition, the figures for the “% Growth rate of MIA PaCa-2 cells” value in data set [8] (25 µM) and in data set [8] (50 µM) were 96% and 80%, respectively. Further, the IC50 in data set [9] (Homo sapiens, NCI-H358, 72 h) stood at 0.14 ± 0.11 µM. The figures for the “% Growth rate of PA-TU-8902 cells” value in data set [10] (25 µM) and in data set [10] (50 µM) were 29% and 23%, respectively.
Turning to `Cc1c(Cl)cccc1NC(=O)CCCn1nc(C)c2c(C)n(-c3ccccc3)nc2c1=O` [Deltazinone derivative], in [14], the dissociation constant Kd is 0.005 ± 0.002 µM.
`CCOC(=O)N1CCC(Nc2c(NCCCBr)c(=O)c2=O)CC1` [compound 7]: in data set [15], the “covalent modification of acid sites in UNC119B” value is “covalently modified”.
